Molecular target: T1, new ADP-ribosyl cyclase (ADPRC) of SEQ ID NO 1 (Mus musculus, UniProt P14094)
T1 construct: FLAG (N); made in house; host or cells: HEK293 cells or MES13 cells (transient transfection)
Test: Inhibition of NAD glycohydrolase (NADase) activity of new ADPRC
Type: biochemical
Conditions: as compared to the control group; ε-NAD substrate, 37° C. 1 hour; inhibitor concentration not given; FIG. 5
Method: In order to investigate the ADP-ribosyl cyclase (ADPRC) activity of SEQ ID NO 1, a FLAG-ADPRC plasmid was prepared by ligating a cDNA sequence encoding ADPRC into a FLAG-CMV-2 vector and the overexpression of new ADPRC was induced by treating HEK293 cells or MES13 cells using a transfection reagent. The overexpressed new ADPRC was lysed with a lysis buffer. 45 μL of the lysed sample was treated with 5 μL of 2 mM ε-NAD (nicotinamide 1,N6-ethenoadenine dinucleotide) and incubated at 37° C. for 1 hour. Then, the enzyme-substrate reaction was stopped by treating with 50 μL of 10% trichloroacetic acid. After centrifuging for 10 minutes and adding 80 μL of the supernatant to 720 μL of 0.1 M sodium phosphate buffer, absorbance was measured at 297 nm (excitation) and 410 nm (emission) with a fluorescence spectrometer.
In order to find an inhibitor which inhibits the activation of new ADP-ribosyl cyclase (ADPRC) of SEQ ID NO 1, 5 μL of each of 4,4′-dihydroxyazobenzene (4-DHAB, TCI (Japan)), 2,2′-dihydroxyazobenzene (2-DAB, Sigma-Aldrich (USA)), 2-(3,4-dihydroxyphenyl)-3,5,7-trihydroxychromen-4-one (Quercetin, Sigma-Aldrich (USA)) and San4825 (synthesized by Kannt A et al. [Kannt A, Sicka K, Kroll K, Kadereit D, Gogelein H. Naunyn. Schmiedebergs. Arch. Pharmacol. 385: 717-727, 2012], China) and 2-(1,3-benzoxazol-2-ylamino)-1-methylquinazoline-4(1H)-one (2-BMQ) and 1,4-dicaffeoylquinic acid (1,4-DCQA, Biopurify (China), hereinafter DCQA), which were newly found through screening, was reacted with 40 μL of new ADPRC in iced water for 15 minutes. Then, reaction was conducted at 37° C. for 1 hour after treating with 5 μL of 2 mM ε-NAD (nicotinamide 1,N6-ethenoadenine dinucleotide). Then, the enzyme-substrate reaction was stopped by treating with 50 μL of 10% trichloroacetic acid. After centrifuging for 10 minutes and adding 80 μL of the supernatant to 720 μL of 0.1 M sodium phosphate buffer, absorbance was measured at 297 nm (excitation) and 410 nm (emission) using a fluorescence spectrometer.

| Structure (SMILES) | NAD glycohydrolase (NADase) activity inhibited |
| --- | --- |
| Oc1ccc(N=Nc2ccc(O)cc2)cc1 [4-DHAB, 4,4′-dihydroxyazobenzene] | 42.40% |
| Cn1c(Nc2nc3ccccc3o2)nc(=O)c2ccccc21 [2-BMQ, 2-(1,3-benzoxazol-2-ylamino)-1-methylquinazoline-4(1H)-one] | 36.49% |
